These results are taken from patent publication US7041169B2, “Methods of generating and screening for high free energy forms in capillaries” (S.S.C.I., Inc., priority 2000, dated 2006).

Holding throughout (format): physicochemical
Data set [1] in a line: Solubility of ROY in ethanol. The note with it: 25 °C, organic solvent or mixture, 25 degrees C. How it is done:
For this example, a solution of ROY in ethanol was prepared. A supersaturated solution of 160.3 mg of ROY in 2 mL of ethanol was prepared, having a supersaturation ratio of 6.7.

The nature of data set [2]: Solubility of ROY in water.
A short description of data set [3]: Solidification of WAY from supersaturated ethanol solution in 95 capillary tubes (Example 5). How it is done:
A supersaturated solution of WAY in ethanol was prepared, having a supersaturation ratio of 2. The WAY solution was introduced into 95 capillary tubes. The tubes were left open at both ends and allowed to evaporate to the atmosphere. After about 25 minutes, sixty-two capillary tubes contained crystals. […] After about one hour, four additional capillary tubes contained white crystals, nine additional capillary tubes contained yellow crystals, and one additional capillary tube contained a mixture of white and yellow crystals.

Data set [4] can be described thus: Solidification of WAY from ethanol and aqueous ethanol in capillary tubes at different temperatures (Example 6, Table 1). How it is done: For this example, solutions of the WAY compound were prepared at a supersaturation ratio of 2 in ethanol and in 10% aqueous ethanol. Each of these WAY solutions was introduced into twenty capillary tubes having a stated inner diameter of 0.5–0.6 mm and which had been washed by soaking in distilled water for about 10 minutes, rinsing with ethanol, and drying for at least an hour at 65 degrees C. The capillary tubes were maintained at room temperature and pressure (about 23 degrees C. and at about 45% relative humidity) and were observed periodically.
Solidification of the WAY compound from ethanol and aqueous ethanol solutions was also done at different temperatures (reported below in degrees Celsius). Table 1 summarizes the results of seven sets of twenty capillary tubes under set different sets of conditions.

As usually defined, the solubility is how much of the substance goes into solution per volume.

SMILES strings stand for the structures. ≈ marks a conversion by molar mass, not a printed value. Entries after “also recorded” stand apart in the source; their conditions may differ.

For `Cc1cc(C#N)c(Nc2ccccc2[N+](=O)[O-])s1` [ROY, 5-methyl-2-[(2-nitrophenyl)amino]-3-thiophenecarbonitrile], the solubility in data set [1] was ~12 mg/mL (≈ 46.3 mM). For the same compound, the solubility in water result in data set [2] is listed as “generally insoluble in water”.
Consider `CC(=O)Nc1ccc(C)cc1[N+](=O)[O-]` [WAY, 4-methyl-2-nitro-acetanilide], for which the “solid forms found in capillary tubes” value in data set [3] (after about 25 minutes, 95 tubes, sixty-two with crystals) is “forty contained white crystals; also recorded: twenty-two contained yellow crystals”. Moreover, the “persistence of high free energy yellow crystals in capillary tubes” value in data set [3] (overnight (about thirteen hours and forty minutes), room temperature) is “nineteen of those tubes had transformed to white crystals; also recorded: six still contained yellow crystals”. For the same compound, the “Result (solid forms in 20 capillary tubes)” value (shortened to “Result”) in data set [4] (Solvent Aqueous ethanol, Temp 38 degrees Celsius, Time 0:50, tubes with mixed yellow and white crystals) is 2/20: mixture of yellow; in data set [4] (Solvent Aqueous ethanol, Temp 38 degrees Celsius, Time 0:50, tubes with no solids formed) it was 18/20: no solids formed; in data set [4] (Solvent Aqueous ethanol, Temp 38 degrees Celsius, Time 1:13, tubes with mixed yellow and white crystals) it was 5/20: mixture of yellow; in data set [4] (Solvent Aqueous ethanol, Temp 38 degrees Celsius, Time 1:13, tubes with no solids formed), 15/20: no solids formed; in data set [4] (Solvent Aqueous ethanol, Temp 38 degrees Celsius, Time 1:42, tubes with mixed yellow and white crystals), 19/20: mixture of yellow; in data set [4] (Solvent Aqueous ethanol, Temp 38 degrees Celsius, Time 1:42, tubes with no solids formed), 1/20: no solids formed. The “Result” value in data set [4] (Solvent Aqueous ethanol, Temp −2 degrees Celsius, Time 4:35, tubes with white crystals) is 1/20: white crystals; in data set [4] (Solvent Aqueous ethanol, Temp −2 degrees Celsius, Time 4:35, tubes with yellow crystals) it was 19/20: yellow crystals; in data set [4] (Solvent Ethanol, Temp 38 degrees Celsius, Time 0:50, tubes with mixed white and yellow crystals) it was 16/20: mixture of white; in data set [4] (Solvent Ethanol, Temp 38 degrees Celsius, Time 0:50, tubes with no solids formed), 4/20: no solids formed; in data set [4] (Solvent Ethanol, Temp 38 degrees Celsius, Time 1:43, tubes with mixed yellow and white crystals), 17/20: mixture of yellow; in data set [4] (Solvent Ethanol, Temp 38 degrees Celsius, Time 1:43, tubes with no solids formed), 3/20: no solids formed. In addition, the “Result” value in data set [4] (Solvent Ethanol, Temp −2 degrees Celsius, Time 4, tubes with white and yellow crystals) is 2/20: white and yellow; in data set [4] (Solvent Ethanol, Temp −2 degrees Celsius, Time 4, tubes with white crystals) it was 10/20: white crystals.
